System: SNU16 cells
Experiment: ecDNA copy number from exome data of SNU16 cells under sequential infigratinib and erlotinib treatment
Type: cell-based, human
Conditions: FIG. 19; for MYC and PDHX ecDNA copy numbers: 1 μM infigratinib up to 12 weeks, followed by 5 μM erlotinib up to four weeks; for EGFR ecDNA copy number: 1 μM infigratinib, followed by 5 μM erlotinib
Method: Exomes were prepared using Human Core Exome kit (Twist Bioscience) and sequenced on an Illumina platform with 2×150 paired-end read configuration.
Sequencing data was processed according to genome analysis tool kit (GATK) recommended practices (see gatk.groadinstitute.org/hc/en-us/articles/30035894731-Somatic-short-variant-discovery-SVNs-Indels-). Briefly, raw reads were aligned to the human genome (version GRCh37) using Burrows-Wheeler aligner (BWA) […] exact match (MEM). Small somatic variations were then extracted using Mutect2 (GATK v4.1.9.0) and filtered using FilterMutectCalls.
A culture of SNU16 cells was subjected to a sequence of treatments, starting with infigratinib and followed with erlotinib. Exome data was obtained from these cells at various time points during this experiment: before treatment with infigratinib, two weeks into treatment with 1 μM infigratinib, after 12 weeks of treatment with 1 μM infigratinib, before treatment with erlotinib, two weeks into treatment with 5 μM erlotinib, and four weeks into treatment with 5 μM erlotinib. VCF files produced by GATK Mutect2 were used to calculate rates of substitutions, insertions, and deletions in one million nucleotide-long genomic windows over the entire autosomal genome. Mean coverage depth was estimated by averaging depth for all mutations in that particular genomic window as reported in the VCF file.

| SMILES | MYC and PDHX ecDNA copy numbers | EGFR ecDNA copy number | FGFR2 ecDNA copy number (during treatment with 1 μM infigratinib) |
| --- | --- | --- | --- |
| CCN1CCN(c2ccc(Nc3cc(N(C)C(=O)Nc4c(Cl)c(OC)cc(OC)c4Cl)ncn3)cc2)CC1 [infigratinib] | mostly stable | dramatically increased | moderately decreased |
| C#Cc1cccc(Nc2ncnc3cc(OCCOC)c(OCCOC)cc23)c1 [erlotinib] | mostly stable | went back down |  |

Source: patent US20230104315A1, “METHOD OF IDENTIFYING EXTRACHROMOSOMAL DNA SIGNATURES” (Boundless Bio, Inc., priority 2020, published 2023)
